# Test results published in US20140024700A1, “BLOOD-BORNE MIRNAS AS SURROGATE MARKERS OF DRUG EFFICACY FOR CARDIAC CONDITIONS” (miRagen Therapeutics, Inc., priority 2010, published 2014).
# Entries after “also recorded” stand apart in the source; their conditions may differ.
# Tests used:
# Dahl salt-sensitive rats [1] = assay: Dahl salt-sensitive rat model, 4% NaCl diet: body weight, echocardiography, histology (Example 1); type: in vivo; details: 4% NaCl HS diet
# Description: To obtain additional insight into the basis for the protective effects seen in response to antimiR-208a, subsequent studies were done using a 4.0% NaCl diet, during which the rats received saline, 5 or 25 mg/kg of antimiR-208a, or 25 mg/kg of antimiR control every 2 weeks.
# The LNA-antimiR oligonucleotides were synthesized at miRagen Therapeutics, Inc. as unconjugated and fully phosphorothiolated oligonucleotides perfectly complementary to the 5′ region of the mature miR-208a sequence. The LNA control oligonucleotide consisted of a sequence directed against a C. elegans specific miRNA. Unless otherwise indicated, in vivo delivery of the oligonucleotide chemistries was achieved by low pressure intravenous (i.v.) injections via the tail vein or subcutaneous injections of either adult male C56B16 mice or adult male Dahl Salt-sensitive rats (Harlan, Indianapolis). […] Tissue samples were collected at the indicated timepoints for molecular or histological examination. Dahl rats were maintained on 0.25 NaCl or placed on 4% or 8% NaCl diet at 8 weeks of age (Harlan, Indianapolis).
# miR-208a = assay: Real-time PCR of miR-208a in cardiac tissue, 4% NaCl diet (Example 1); type: in vivo, rat; details: 4% NaCl HS diet, 2 weeks after last injection, 5 or 25 mg/kg antimiR, control 25 mg/kg
# Description: This regulation of miR-499 and miR-208b was confirmed by Northern blot analysis (FIG. 2B).
# (§1) For in vivo real-time PCR analysis, RNA was extracted from cardiac tissue using Trizol (Invitrogen) after which two μg RNA from each tissue sample was used to generate cDNA using Super Script II reverse transcriptase per manufacturer's specifications (Invitrogen). To detect the level of miR-208 RT-PCR was performed using the Taqman MicroRNA assay (Applied Biosystems, ABI) according the manufacturer's recommendations, using 10-100 ng of total RNA. The expression of a subset of genes was analyzed by quantitative real time PCR using Taqman probes purchased from ABI.
# Dahl salt-sensitive rats [2] = assay: Dahl salt-sensitive rat model, 6% NaCl diet: body weight and survival (Example 3); type: in vivo
# miR-208a, Myh6, Myh7 = assay: Cardiac tissue markers by Taqman RT-PCR, 4% NaCl diet (Example 2); type: in vivo, rat; details: 25 mg/kg sc every 2 weeks
# Description: The flowing experimental groups were tested:
# Following catheter implant surgery, high-salt diet was initiated. […] Animals were sacrificed 8 weeks after the initial injection.
# Tissue RNA was isolated using standard Trizol RNA isolation.
# [3] = test system: miR-208a, miR-499, miR-208b, Myh6, Myh7b, Myh7, Dynlt1, Vcpip, Tegt; assay: Cardiac tissue real-time PCR, 6% NaCl diet (Example 3); type: in vivo, rat
# Description: One week following the initiation of the 6.0% NaCl diet, rats were dosed subcutaneously (sc) with saline or oligonucleotides (M−10101, 5′-CTTTTTGCTCGTCTTA-3′ (SEQ ID NO: 12) or M-10591, 5′-TCCTAGAAAGAGTAGA-3′ (SEQ ID NO:13)) at 25 mg/kg every 2 weeks. Captopril or water were dosed daily by oral gavage. Echocardiography was performed every 2 weeks starting one week post […] dosing. The Captopril dose for rat was selected to match the standard human dose in man.
# as §1, with “AB.” for “ABI.”
# [4] = 8 weeks, histological quantification, listed as antimiR-208a
# [5] = 8 weeks after HS diet, vs HS/saline, listed as antimiR-208a
# [6] = listed as antimiR-208a, 25 mg/kg
# [7] = M-10101 25 mg/kg sc, Captopril po daily
substance,measurement,setting,value
"M-10101: antimiR targeting bases 2 to 17 of mature miR-208a, LNA and DNA linked by phosphorothioate bonds; 5′-CTTTTTGCTCGTCTTA-3′ (SEQ ID NO: 12) (all phosphorothioate, sugars by position and methylation of C not given here; LNA/DNA mixmer; listed as Homo sapiens)",Cardiomyocyte hypertrophy (cardiomyocyte size),Dahl salt-sensitive rats [1]; [4],significant reduction in cardiomyocyte hypertrophy; also recorded: significantly less hypertrophy
same,"Periarteriolar (perivascular) fibrosis, Picrosirius Red staining",Dahl salt-sensitive rats [1]; [4],reduced periarteriolar fibrosis; also recorded: significantly less hypertrophy and fibrosis
same,Body weight gain,"Dahl salt-sensitive rats [1]; 5 or 25 mg/kg every 2 weeks, listed as antimiR-208a",maintained their increase in weight gain; also recorded: sufficient to maintain weight gain comparable to that in animals on a normal diet
same,"Isovolumic relaxation time (IVRT), echocardiography",Dahl salt-sensitive rats [1]; [5],significant dose-dependent reduction; also recorded: significantly improved
same,Mitral valve early to active filling velocity ratio (MV E/A),Dahl salt-sensitive rats [1]; [5],normalization; also recorded: significantly improved
same,"Isovolumic relaxation time, time-dependent echocardiography","Dahl salt-sensitive rats [1]; every 2 weeks after HS diet, vs HS/saline, data not shown",significant reductions in isovolumic relaxation time
same,miR-208a level in left and right ventricle,miR-208a; listed as Anti-miR-208a,dose-dependent inhibition
same,miR-208a level in left and right ventricle,miR-208a; listed as anti-miR-208a,dose-dependent reduction of miR-208a
same,Survival (Kaplan-Meier),"Dahl salt-sensitive rats [2]; M-10101 25 mg/kg sc every 2 weeks, water po, 25 mg/kg",significantly improved survival; also recorded: No mortality was observed
same,Body weight,Dahl salt-sensitive rats [2]; oligonucleotide 25 mg/kg sc every 2 weeks,partially prevented the body weight loss
same,Myh7 expression in cardiac tissue,"miR-208a, Myh6, Myh7; listed as AntimiR-208a, 25 mg/kg",blunted the hypertension-induced increase in Myh7 expression
same,Myh6 expression in cardiac tissue,"miR-208a, Myh6, Myh7; [6]",prevented the high-salt diet-induced decrease in Myh6 expression; also recorded: prevents this decrease
same,Myh7 expression in cardiac tissue,"miR-208a, Myh6, Myh7; [6]",reduces this increase
same,miR-208a in cardiac tissue,"miR-208a, Myh6, Myh7; vs HS/Saline",greater inhibition of miR-208a
same,"Expression of direct target genes of miR-208a (Dynlt1, Vcpip, Tegt) in cardiac tissue",[3]; 25 mg/kg sc,increase in expression
same,miR-208a cardiac level,[3]; 25 mg/kg sc every 2 weeks,further reduced
same,miR-208b cardiac level,[3]; 25 mg/kg sc every 2 weeks,reduction of cardiac levels
same,miR-499 cardiac level,[3]; 25 mg/kg sc every 2 weeks,reduction of cardiac levels
same,Myh7b levels in the heart,[3]; [7],specifically reduced
same,αMHC (Myh6) in the heart (reduced by HS diet),[3]; [7],normalized
same,βMHC (Myh7) expression (increase induced by HS diet),"[3]; M-10101 25 mg/kg sc, Captopril po daily, listed as antimiR-208a",more effective; also recorded: not significantly different from animals on the LS diet
